Experimental data: ChEMBL document CHEMBL4033618, “Covalently linked kanamycin - Ciprofloxacin hybrid antibiotics as a tool to fight bacterial resistance” (Bioorg Med Chem, 2017)
Converted amounts (≈) assume the structure as drawn.

Tests used:
[1] = Acute toxicity in iv dosed mouse at pH 6.6 administered for 4 days; assay type: organism-based; details: in vivo
Escherichia coli [2] = experiment: Ratio of MIC for aminoglycosides-resistant Escherichia coli BL21 harboring pET11d encode for APH(3')-2b resistance enzyme to MIC for Escherichia coli BL21; assay type: functional
Escherichia coli [3] = experiment: Antibacterial activity against kanamycin-resistant Escherichia coli AG100B by double microdilution method; assay type: functional
Escherichia coli [4] = experiment: Antibacterial activity against kanamycin-resistant Escherichia coli AG100A by double microdilution method; assay type: functional
Escherichia coli [5] = experiment: Antibacterial activity against aminoglycosides-susceptible Escherichia coli R477-100 by double microdilution method; assay type: functional
Escherichia coli [6] = experiment: Antibacterial activity against aminoglycosides-susceptible Escherichia coli 25922 by double microdilution method; assay type: functional; details: ATCC 25922
Bacillus subtilis = experiment: Antibacterial activity against aminoglycosides-susceptible Bacillus subtilis by double microdilution method; assay type: functional
[7] = tested on: Staphylococcus epidermidis; experiment: Antibacterial activity against aminoglycosides-susceptible Staphylococcus epidermidis by double microdilution method; assay type: functional
Escherichia coli [8] = experiment: Antibacterial activity against Escherichia coli BL21 by double microdilution method; assay type: functional
Escherichia coli [9] = experiment: Antibacterial activity against aminoglycosides-resistant Escherichia coli BL21 harboring pSF815 encode for bifunctional AAC(6')/APH(2\") resistance enzyme by double microdilution method; assay type: functional
Escherichia coli [10] = experiment: Ratio of MIC for aminoglycosides-resistant Escherichia coli BL21 harboring pSF815 encode for bifunctional AAC(6')/APH(2\") resistance enzyme to MIC for Escherichia coli BL21; assay type: functional
Escherichia coli [11] = experiment: Antibacterial activity against aminoglycosides-resistant Escherichia coli BL21 harboring pET11d encode for APH(3')-2b resistance enzyme by double microdilution method; assay type: functional
Escherichia coli [12] = experiment: Antibacterial activity against aminoglycosides-resistant Escherichia coli BL21 harboring pETSACG1 encode for APH(3')-3a resistance enzyme by double microdilution method; assay type: functional
Escherichia coli [13] = experiment: Ratio of MIC for aminoglycosides-resistant Escherichia coli BL21 harboring pETSACG1 encode for APH(3')-3a resistance enzyme to MIC for Escherichia coli BL21; assay type: functional
Escherichia coli [14] = experiment: Antibacterial activity against Escherichia coli XL1 blue by double microdilution method; assay type: functional
Escherichia coli [15] = experiment: Antibacterial activity against Escherichia coli XL1 blue harboring pET9d encode for APH(3')-1a resistance enzyme by double microdilution method; assay type: functional
Escherichia coli [16] = experiment: Ratio of MIC for Escherichia coli XL1 blue harboring pET9d encode for APH(3')-1a resistance enzyme to MIC for Escherichia coli XL1 blue; assay type: functional
Escherichia coli [17] = experiment: Inhibition of protein translation in Escherichia coli S30 cell extract using circular DNA with pBESTluc after 60 mins; assay type: functional; details: Escherichia coli, 1 h; read-out: IC50
[18] = Inhibition of Escherichia coli DNA gyrase using relaxed pBR322 DNA as substrate by agarose gel electrophorosis method; details: read-out: IC50
[19] = Inhibition of Escherichia coli topoisomerase 4 using supercoiled pBR322 DNA as substrate by agarose gel electrophorosis method; details: read-out: IC50

SMILES	LD50 at 96 h [1] [mg/kg]	Ratio (Escherichia coli [2])	MIC (Escherichia coli [3]) [µg/mL]	MIC (Escherichia coli [4]) [µg/mL]	MIC (Escherichia coli [5]) [µg/mL]	MIC (Escherichia coli [6]) [µg/mL]	MIC (Bacillus subtilis) [µg/mL]	MIC [7] [µg/mL]	MIC (Escherichia coli [8]) [µg/mL]	MIC (Escherichia coli [9]) [µg/mL]	Ratio (Escherichia coli [10])	MIC (Escherichia coli [11]) [µg/mL]	MIC (Escherichia coli [12]) [µg/mL]	Ratio (Escherichia coli [13])	MIC (Escherichia coli [14]) [µg/mL]	MIC (Escherichia coli [15]) [µg/mL]	Ratio (Escherichia coli [16])	IC50 (Escherichia coli [17]) [µM]	IC50 [18] [µM]	IC50 [19] [µM]
NCC[C@H](O)C(=O)N[C@@H]1C[C@H](N)[C@@H](O[C@H]2O[C@H](CN)[C@@H](O)[C@H](O)[C@H]2O)[C@H](O)[C@H]1O[C@H]1O[C@H](CO)[C@@H](O)[C@H](N)[C@H]1O [AMIKACIN]	300																			
NC[C@H]1O[C@H](O[C@H]2[C@H](O)[C@@H](O[C@H]3O[C@H](CO)[C@@H](O)[C@H](N)[C@H]3O)[C@H](NCc3cn(CCCCCCN4CCN(c5cc6c(cc5F)c(=O)c(C(=O)O)cn6C5CC5)CC4)nn3)C[C@@H]2N)[C@H](O)[C@@H](O)[C@@H]1O		1	24 (≈ 24.5 µM)	1.5 (≈ 1.53 µM)	12 (≈ 12.3 µM)	12 (≈ 12.3 µM)	6 (≈ 6.13 µM)	24 (≈ 24.5 µM)	0.8 (≈ 0.817 µM)	0.8 (≈ 0.817 µM)	1	0.8 (≈ 0.817 µM)	0.8 (≈ 0.817 µM)	1	12 (≈ 12.3 µM)	12 (≈ 12.3 µM)	1	6.46		
NC[C@H]1O[C@H](O[C@H]2[C@H](O)[C@@H](O[C@H]3O[C@H](CO)[C@@H](O)[C@H](N)[C@H]3O)[C@H](NC(=O)CCc3cn(CCN4CCN(c5cc6c(cc5F)c(=O)c(C(=O)O)cn6C5CC5)CC4)nn3)C[C@@H]2N)[C@H](O)[C@@H](O)[C@@H]1O		2	24 (≈ 24.9 µM)	0.75 (≈ 0.777 µM)	6 (≈ 6.22 µM)	3 (≈ 3.11 µM)	6 (≈ 6.22 µM)	18 (≈ 18.7 µM)	0.8 (≈ 0.829 µM)	0.4 (≈ 0.415 µM)	2	0.4 (≈ 0.415 µM)	0.6 (≈ 0.622 µM)	3	24 (≈ 24.9 µM)	18 (≈ 18.7 µM)	1	19.2	9.9	> 100
NC[C@H]1O[C@H](O[C@H]2[C@H](O)[C@@H](O[C@H]3O[C@H](CO)[C@@H](O)[C@H](N)[C@H]3O)[C@H](NCc3cn(Cc4cccc(CN5CCN(c6cc7c(cc6F)c(=O)c(C(=O)O)cn7C6CC6)CC5)c4)nn3)C[C@@H]2N)[C@H](O)[C@@H](O)[C@@H]1O		1	36 (≈ 36 µM)	1.5 (≈ 1.5 µM)	36 (≈ 36 µM)	24 (≈ 24 µM)	12 (≈ 12 µM)	18 (≈ 18 µM)	1.5 (≈ 1.5 µM)	0.8 (≈ 0.801 µM)	1	0.8 (≈ 0.801 µM)	0.8 (≈ 0.801 µM)	1	12 (≈ 12 µM)	24 (≈ 24 µM)	2			
NC[C@H]1O[C@H](O[C@H]2[C@H](O)[C@@H](O[C@H]3O[C@H](CO)[C@@H](O)[C@H](N)[C@H]3O)[C@H](NC(=O)CCCc3cn(Cc4ccc(CN5CCN(c6cc7c(cc6F)c(=O)c(C(=O)O)cn7C6CC6)CC5)cc4)nn3)C[C@@H]2N)[C@H](O)[C@@H](O)[C@@H]1O		1	24 (≈ 22.7 µM)	0.75 (≈ 0.711 µM)	6 (≈ 5.69 µM)	3 (≈ 2.84 µM)	3 (≈ 2.84 µM)	6 (≈ 5.69 µM)	0.8 (≈ 0.758 µM)	0.8 (≈ 0.758 µM)	1	0.8 (≈ 0.758 µM)	0.8 (≈ 0.758 µM)	1	6 (≈ 5.69 µM)			2.19		
NC[C@@H]1O[C@H](O[C@H]2[C@@H](O)[C@H](O[C@@H]3[C@@H](O)[C@H](N)C[C@H](N)[C@H]3O[C@H]3O[C@H](CN)[C@@H](O)[C@H](O)[C@H]3N)O[C@@H]2CO)[C@H](N)[C@@H](O)[C@@H]1O [FRAMYCETIN]	24																			
NC[C@H]1O[C@H](O[C@H]2[C@H](O)[C@@H](O[C@H]3O[C@H](CO)[C@@H](O)[C@H](N)[C@H]3O)[C@H](NC(=O)CCc3cn(Cc4cccc(CN5CCN(c6cc7c(cc6F)c(=O)c(C(=O)O)cn7C6CC6)CC5)c4)nn3)C[C@@H]2N)[C@H](O)[C@@H](O)[C@@H]1O		2	48 (≈ 46.1 µM)	1.5 (≈ 1.44 µM)	24 (≈ 23.1 µM)	18 (≈ 17.3 µM)	9 (≈ 8.64 µM)	18 (≈ 17.3 µM)	0.8 (≈ 0.768 µM)	1.5 (≈ 1.44 µM)	2	1.5 (≈ 1.44 µM)	1.5 (≈ 1.44 µM)	2	12 (≈ 11.5 µM)	24 (≈ 23.1 µM)	2			
